In PMC8956739, “A synthetic lipopeptide targeting top-priority multidrug-resistant Gram-negative pathogens” (Nature Communications, 2022):
Like-named read-outs stand apart in the source and are kept apart here.

Key:
[1] = test system: K. pneumoniae FADDI-KP065; format: cell-based, Klebsiella pneumoniae; conditions: carbapenem-resistant isolate
Summary of the method: (§1)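 Read-out is the minimum inhibitory concentration, obtained by serially diluting compound in cation-adjusted Mueller–Hinton medium and exposing each isolate in microdilution format.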

[2] = test system: K. pneumoniae FADDI-KP032; format: cell-based, Klebsiella pneumoniae; conditions: carbapenem-resistant isolate
Summary of the method: as §1

[3] = test system: KCNJ16 knockout HK-2 cells; experiment: Cell viability after 24 h treatment; format: cell-based, human; conditions: KCNJ16 knockout HK-2 cells, 24 h, Fig. 6b; for Cell viability, KCNJ16 KO, Rep2: replicate 2; for Cell viability, KCNJ16 KO, Rep3: replicate 3; for Cell viability, KCNJ16 KO, Rep4: replicate 4
Protocol: Fig. 6 Transcriptomic changes in human kidney proximal tubular HK-2 cells following treatments with polymyxin B (PMB), colistin (COL), F287, F319, and F365. a Numbers of differentially expressed genes. Distinctive intersections are color-coded. b Cell viability difference (two-tailed Student’s t-test, n = 4 biologically independent cells, Benjamini–Hochberg adjusted P-values) between wild-type HK-2 and KCNJ16 knockout (KO) cells following 24 h treatment with lipopeptides. n.s., not significant; ^*adjusted P < 0.05, ^**adjusted P < 0.01, ^***adjusted P < 0.001. Data are shown as mean ± s.d. and individual data points. c Extracted transcriptional regulatory network from Signor database with 1-step neighbor constraints (enlarged for detail). Source data are provided as a Source Data file.

HK-2 cells = experiment: Transcriptomic analysis (RNA-Seq) of kidney cells; format: cell-based, human; conditions: for logFC, differential gene expression for all genes / log2FC / Fold Change: HK-2 RNA-Seq; for log2FC: Fig. 5f; for Fold Change: Fig. 5e; for num.of.degs: number of differentially expressed genes per peptide, Fig. 6a
Protocol: Human Kidney-2 (HK-2) cells (CRL-2190™, American Type Culture Collection) were treated with 100 μM colistin, F287, F319, and F365 for 24 h. Previous transcriptomic data of HK-2 cells following 24 h treatment with polymyxin B[26] were also employed for comparative bioinformatic analysis. RNA extraction was conducted as described above. Raw reads were aligned to genome GRCh38.94 (Ensembl genome database, http://ftp.ensembl.org/pub/release-94/fasta/homo_sapiens/dna/) using […] and summarized by featureCounts. Differentially expressed genes were determined using limma 3.46.0, with a combination of fold change ≥ 1.5 and FDR (by Benjamini–Hochberg algorithm) adjusted P-value ≤ 0.05 (n = 3). Key regulatory genes of HK-2 were analyzed in the context of signaling network in the Signor 2.0 database. Enrichment analysis of gene differential expression in HK-2 cells was conducted using enrichR 2.1. UpSetR 1.4.0, ComplexHeatmap 2.6.2, circlize 0.4.13 and iGraph 1.2.11 were used for data visualization. Raw data were deposited in the Short Reads Archive database under accession numbers SRR15239061-SRR15239078.

[4] = test system: P. aeruginosa FADDI-PA025; format: cell-based, Pseudomonas aeruginosa; conditions: MDR clinical isolate
Summary of the method: as §1

[5] = test system: P. aeruginosa FADDI-PA038; format: cell-based, Pseudomonas aeruginosa; conditions: carbapenem-resistant isolate
Summary of the method: as §1

P. aeruginosa ATCC 27853 = format: cell-based, Pseudomonas aeruginosa; conditions: for increase of MIC in the presence of lung surfactant: 10% Survanta vs none; for MIC, 10% Survanta: P. aeruginosa ATCC 27853, 10% Survanta; for MIC, No Survanta: P. aeruginosa ATCC 27853, no surfactant
Summary of the method: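 Compounds were serially diluted in CaMHB, bacteria were added, and the lowest inhibitory concentration was recorded after broth microdilution testing.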

[6] = test system: MDR clinical isolates of P. aeruginosa (n = 213, 55 carbapenem-resistant); format: cell-based, Pseudomonas aeruginosa
Summary of the method: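 MICs came from broth microdilution in cation-adjusted Mueller–Hinton broth against clinical isolates. For surfactant binding, P. aeruginosa ATCC 27853 was additionally tested with 10% Survanta® (v/v, 2.5 mg/mL phospholipids) added to the polymyxin-containing broth.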

[7] = locus chr1 629640-630683 (ENSG00000225630 by coordinates)
[8] = locus chr1 632757-633438 (ENSG00000229344 by coordinates)

Substance | MIC K. pneumoniae FADDI-KP065 [1] [µg/mL] | MIC K. pneumoniae FADDI-KP032 [2] [µg/mL] | Cell viability, KCNJ16 KO, Rep2 [3] | Cell viability, KCNJ16 KO, Rep3 [3] | Cell viability, KCNJ16 KO, Rep4 [3] | logFC, differential gene expression for all genes (HK-2 cells; Geneid ENSG00000223972) | logFC, differential gene expression for all genes (HK-2 cells; Geneid ENSG00000227232) | logFC, differential gene expression for all genes (HK-2 cells; Geneid ENSG00000233750) | logFC, differential gene expression for all genes (HK-2 cells; Geneid ENSG00000278267) | log2FC (HK-2 cells; gene ENSG00000017483 SLC38A5) | log2FC (HK-2 cells; gene ENSG00000023445 BIRC3) | log2FC (HK-2 cells; gene ENSG00000056558 TRAF1) | log2FC (HK-2 cells; gene ENSG00000066468 FGFR2) | Fold Change (HK-2 cells; [7]) | Fold Change (HK-2 cells; [8]) | num.of.degs (HK-2 cells) | MIC P. aeruginosa FADDI-PA025 [4] [µg/mL] | MIC P. aeruginosa FADDI-PA038 [5] [µg/mL] | MIC P. aeruginosa ATCC 27853 (P. aeruginosa ATCC 27853) [µg/mL] | increase of MIC in the presence of lung surfactant (P. aeruginosa ATCC 27853) [fold] | other results
Colistin [reference compound] | 0.25 | 1 | 81.0179 | 91.8189 | 66.4023 | -0.6712 | -0.1985 | -0.899 | -0.3433 | 0.7893 | -0.6239 | 0.6268 | -1.3101 | 0.2606 | 0.2186 | 1282 | 2 | 1 | 0.5 | 8 | MIC, 10% Survanta (P. aeruginosa ATCC 27853): 8 µg/mL; MIC, No Survanta (P. aeruginosa ATCC 27853): 1 µg/mL
Polymyxin B [reference compound] | 0.25 | 0.5 | 73.0677 | 75.1154 | 76.9625 | 0.4637 | -0.07236 | -0.3869 | -0.4937 | 0.7953 | -0.454 | 0.6897 | -1.758 | 1.799 | 1.2 | 1576 | 2 | 0.5 | 0.5 | 8 | Cell viability, KCNJ16 KO, Rep1 ([3]; replicate 1): 61.7446; Fold Change (HK-2 cells; locus chr1 631074-632616 (ENSG00000237973 by coordinates)): 1.271; MIC50 ([6]; P. aeruginosa n = 213): 1 µg/mL; MIC90 ([6]; P. aeruginosa n = 213): 2 µg/mL; Number of isolates ([6]; isolates with MIC 0.05 μg/mL (so in the source)): 0; Number of isolates ([6]; isolates with MIC 0.125 μg/mL (so in the source)): 0; Number of isolates ([6]; isolates with MIC 0.25 μg/mL (so in the source)): 1; Number of isolates ([6]; isolates with MIC 0.5 μg/mL (so in the source)): 9; Number of isolates ([6]; isolates with MIC 1 μg/mL (so in the source)): 99; Number of isolates ([6]; isolates with MIC 2 μg/mL (so in the source)): 95; Number of isolates ([6]; isolates with MIC 4 μg/mL (so in the source)): 7; Number of isolates ([6]; isolates with MIC 8 μg/mL (so in the source)): 0; Number of isolates ([6]; isolates with MIC 16 μg/mL (so in the source)): 2; Number of isolates ([6]; isolates with MIC 32 μg/mL (so in the source)): 0; Number of isolates ([6]; isolates with MIC 64 μg/mL (so in the source)): 0; Number of isolates ([6]; isolates with MIC >64 μg/mL (so in the source)): 0; MIC P. aeruginosa FADDI-PA038 ([5]; listed as PMB): 1 µg/mL; loss of antibacterial activity due to binding to lung surfactant (P. aeruginosa ATCC 27853; 10% Survanta): 87.5%; MIC, 10% Survanta (P. aeruginosa ATCC 27853): 8 µg/mL; MIC, No Survanta (P. aeruginosa ATCC 27853): 1 µg/mL
